This note sets out measurements from US20110143948A1, “MOLECULAR SIGNATURES AND BIOMARKERS ASSOCIATED WITH MELANOMA AND METHODS OF USE THEREOF” (priority 2008, published 2011).

For the data set, the system named is ncRNAs (SEQ ID NO 28-89). Nature of the data set: ncRNA arrays of melanocytes, keratinocytes, normal skin, melanoma cell lines and patient samples. On the set-up: species or system human. The note with it: for ncRNA array expression, patient 2: melanoma patient 2 sample compared to normal skin; for ncRNA array expression, patient 3: melanoma patient 3 sample compared to normal skin; for ncRNA array expression, patient 4: melanoma patient 4 sample compared to normal skin; for ncRNA array expression, patient 5: melanoma patient 5 sample compared to normal skin; for ncRNA array expression, patient 6: melanoma patient 6 sample compared to normal skin; for ncRNA array expression, patient 7: melanoma patient 7 sample compared to normal skin; for ncRNA array expression, patient 8: melanoma patient 8 sample compared to normal skin; for ncRNA array expression, patient 9: melanoma patient 9 sample compared to normal skin; for ncRNA array expression, patient 10: melanoma patient 10 sample compared to normal skin; for ncRNA array expression, patient 19: melanoma patient 19 sample compared to normal skin; for ncRNA array expression, patient 20: melanoma patient 20 sample compared to normal skin; for ncRNA array expression, patient 21: melanoma patient 21 sample compared to normal skin; for ncRNA array expression, patient 22: melanoma patient 22 sample compared to normal skin; for ncRNA array expression, patient 23: melanoma patient 23 sample compared to normal skin; for ncRNA array expression, patient 24: melanoma patient 24 sample compared to normal skin; for ncRNA array expression, patient 25: melanoma patient 25 sample compared to normal skin; for ncRNA array expression, patient 26: melanoma patient 26 sample compared to normal skin; for ncRNA array expression, patient 27: melanoma patient 27 sample compared to normal skin; for ncRNA array expression, patient 28: melanoma patient 28 sample compared to normal skin; for ncRNA array expression, patient 29: melanoma patient 29 sample compared to normal skin; for ncRNA array expression, patient 30: melanoma patient 30 sample compared to normal skin. The method, boiled down:
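Differential ncRNA expression was defined against melanocytes or normal skin after subtracting keratinocyte-specific signals, with confirmation by qRT-PCR and Northern blot. Samples were melanoma cell lines, patient tumours, melanocytes, keratinocytes and normal skin, hybridised to a >10,000-probe (>200 nt) ncRNA array that also carries RefSeq mRNA probes.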

As to “SEQ ID NO 63 (CTCACACGCACCCTTTCACTGTTTCTTAGTAATTTGTTTGTCTACAGACACAGACGGGAA; listed as DNA, chemistry not given here; listed as Homo sapiens)”, the “ncRNA array expression, patient 2” value is recorded as −1.694; the “ncRNA array expression, patient 3” value is −1.565; the “ncRNA array expression, patient 4” value is −1.396; the “ncRNA array expression, patient 5” value is −1.315. For the same substance, the “ncRNA array expression, patient 6” value is listed as −0.5921; the “ncRNA array expression, patient 7” value is given as −1.305; the “ncRNA array expression, patient 8” value is listed as −1.26; the “ncRNA array expression, patient 9” value is listed as −1.429. Further, the “ncRNA array expression, patient 10” value is reported as −1.417; the “ncRNA array expression, patient 19” value is recorded as −1.154; the “ncRNA array expression, patient 20” value is reported as −1.232; the “ncRNA array expression, patient 21” value is recorded as −1.397. Besides, the “ncRNA array expression, patient 22” value is −0.3562; the “ncRNA array expression, patient 23” value is given as −0.04699; the “ncRNA array expression, patient 24” value was −1.093; the “ncRNA array expression, patient 25” value is on record as −2.099. Besides, the “ncRNA array expression, patient 26” value is −2.008; the “ncRNA array expression, patient 27” value was −1.525; the “ncRNA array expression, patient 28” value is reported as −1.601; the “ncRNA array expression, patient 29” value is on record as −1.862. The “ncRNA array expression, patient 30” value was 1.622.
Regarding “SEQ ID NO 60 (ACTAACAGCACTGGAGGGTGTAGTGTTTCCTACTTTATGGATGAGTGTACTGTGGGCTTC; listed as DNA, chemistry not given here; listed as Homo sapiens)”, the “ncRNA array expression, patient 2” value is given as 2.776; the “ncRNA array expression, patient 3” value turned out to be 2.279; the “ncRNA array expression, patient 4” value is on record as 2.327; the “ncRNA array expression, patient 5” value is 0.8655. For the same substance, the “ncRNA array expression, patient 6” value is recorded as −1.218; the “ncRNA array expression, patient 7” value stood at 2.958; the “ncRNA array expression, patient 8” value is 0.3154; the “ncRNA array expression, patient 9” value turned out to be 1.739. In addition, the “ncRNA array expression, patient 10” value was 2.002; the “ncRNA array expression, patient 19” value turned out to be 0.3888; the “ncRNA array expression, patient 20” value is recorded as 2.119; the “ncRNA array expression, patient 21” value is 0.7491. Besides, the “ncRNA array expression, patient 22” value is 3.236; the “ncRNA array expression, patient 23” value worked out at 1.416; the “ncRNA array expression, patient 24” value is recorded as 1.295; the “ncRNA array expression, patient 25” value came out at 1.226. Moreover, the “ncRNA array expression, patient 26” value was 1.537; the “ncRNA array expression, patient 27” value is reported as 1.485; the “ncRNA array expression, patient 28” value is 0.6983; the “ncRNA array expression, patient 29” value is recorded as 1.398. In addition, the “ncRNA array expression, patient 30” value turned out to be 0.02973.
For the substance “SEQ ID NO 75 (CAAGTGGGAAGAAAAAGAGCCCTACGTGGTGACATTCTGGAAGGATATCATGGATGATTG; listed as DNA, chemistry not given here; listed as Homo sapiens)”, the “ncRNA array expression, patient 2” value came out at 0.5875; the “ncRNA array expression, patient 3” value amounted to 0.2177; the “ncRNA array expression, patient 4” value came out at 1.062; the “ncRNA array expression, patient 5” value came out at 1.072. Moreover, the “ncRNA array expression, patient 6” value was determined as 1.853; the “ncRNA array expression, patient 7” value amounted to 2.114; the “ncRNA array expression, patient 8” value is on record as 2.605; the “ncRNA array expression, patient 9” value was determined as 1.117. Further, the “ncRNA array expression, patient 10” value is given as 0.6968; the “ncRNA array expression, patient 19” value was 1.219; the “ncRNA array expression, patient 20” value is listed as 2.945; the “ncRNA array expression, patient 21” value amounted to 1.592. The “ncRNA array expression, patient 22” value is reported as 1.681; the “ncRNA array expression, patient 23” value is recorded as 1.545; the “ncRNA array expression, patient 24” value was 2.209; the “ncRNA array expression, patient 25” value is reported as −0.3024. Further, the “ncRNA array expression, patient 26” value stood at 0.226; the “ncRNA array expression, patient 27” value stood at 3.291; the “ncRNA array expression, patient 28” value is on record as 1.546; the “ncRNA array expression, patient 29” value is 2.221. Also, the “ncRNA array expression, patient 30” value is recorded as −1.4645.
Turning to “SEQ ID NO 78 (ATGGAAAGGCCAGGGGAGGGTGGAGCTCAGGAGTGGAAGCACAGGGACTAAGGCCTGAGC; listed as DNA, chemistry not given here; listed as Homo sapiens)”, the “ncRNA array expression, patient 2” value was −3.7; the “ncRNA array expression, patient 3” value is −3.634; the “ncRNA array expression, patient 4” value was −3.593; the “ncRNA array expression, patient 5” value is −3.41. In addition, the “ncRNA array expression, patient 6” value is on record as −1.8308; the “ncRNA array expression, patient 7” value is −3.861; the “ncRNA array expression, patient 8” value was −3.607; the “ncRNA array expression, patient 9” value is given as −3.9856. In addition, the “ncRNA array expression, patient 10” value is −3.496; the “ncRNA array expression, patient 19” value is given as −2.807; the “ncRNA array expression, patient 20” value was −3.82; the “ncRNA array expression, patient 21” value is −3.781. Further, the “ncRNA array expression, patient 22” value was −1.089; the “ncRNA array expression, patient 23” value is on record as −1.0414; the “ncRNA array expression, patient 24” value is given as −3.419; the “ncRNA array expression, patient 25” value is −3.518. The “ncRNA array expression, patient 26” value is −3.351; the “ncRNA array expression, patient 27” value is −3.653; the “ncRNA array expression, patient 28” value is reported as −3.215; the “ncRNA array expression, patient 29” value is −3.656. Also, the “ncRNA array expression, patient 30” value came out at 1.597.
“SEQ ID NO 88 (CTGTTGCTTATTCTGGGAGCCCAATCCTAGGCTGAGGGAGGTGGGCGCGGGGCTGTTTAA; listed as DNA, chemistry not given here; listed as Homo sapiens)”: the “ncRNA array expression, patient 2” value was −1.501; the “ncRNA array expression, patient 3” value is recorded as −1.118; the “ncRNA array expression, patient 4” value is −1.158; the “ncRNA array expression, patient 5” value is given as −1.192. Further, the “ncRNA array expression, patient 6” value is reported as −0.882; the “ncRNA array expression, patient 7” value is reported as −1.165; the “ncRNA array expression, patient 8” value was −1.206; the “ncRNA array expression, patient 9” value is recorded as −1.551. For the same substance, the “ncRNA array expression, patient 10” value was −1.883; the “ncRNA array expression, patient 19” value is on record as −0.5619; the “ncRNA array expression, patient 20” value is −1.6443; the “ncRNA array expression, patient 21” value is given as −1.527. The “ncRNA array expression, patient 22” value was −0.8009; the “ncRNA array expression, patient 23” value is −0.3034; the “ncRNA array expression, patient 24” value is −1.128; the “ncRNA array expression, patient 25” value is given as −1.933. Moreover, the “ncRNA array expression, patient 26” value is given as −1.942; the “ncRNA array expression, patient 27” value is given as −2.173; the “ncRNA array expression, patient 28” value was −1.861; the “ncRNA array expression, patient 29” value is on record as −2.1207. Further, the “ncRNA array expression, patient 30” value is listed as 0.7208.
As for “SEQ ID NO 50 (GTTATTATAACCAATGCAGACTTTAAAATCCCACCTGGACATCGGGTGAGAGGAGGAGGG; listed as DNA, chemistry not given here; listed as Homo sapiens)”, the “ncRNA array expression, patient 2” value was −2.415; the “ncRNA array expression, patient 3” value is reported as −1.962; the “ncRNA array expression, patient 4” value is recorded as −2.102; the “ncRNA array expression, patient 5” value is recorded as −1.782. In addition, the “ncRNA array expression, patient 6” value was −1.159; the “ncRNA array expression, patient 7” value was −1.978; the “ncRNA array expression, patient 8” value is reported as −1.68; the “ncRNA array expression, patient 9” value is given as −2.03. The “ncRNA array expression, patient 10” value is listed as −1.537; the “ncRNA array expression, patient 19” value was −0.5347; the “ncRNA array expression, patient 20” value is on record as −1.776; the “ncRNA array expression, patient 21” value is on record as −1.854. Also, the “ncRNA array expression, patient 22” value is on record as −1.427; the “ncRNA array expression, patient 23” value is listed as −0.1575; the “ncRNA array expression, patient 24” value is listed as −1.434; the “ncRNA array expression, patient 25” value is given as −1.804. Besides, the “ncRNA array expression, patient 26” value is listed as −1.952; the “ncRNA array expression, patient 27” value was −1.707; the “ncRNA array expression, patient 28” value is on record as −1.738; the “ncRNA array expression, patient 29” value was −2.317. Also, the “ncRNA array expression, patient 30” value was −0.3312.
With “SEQ ID NO 72 (AATTACATATATTTAGCAGGATTTTTATTTGCCGTGATATATAGGATAATTTAGTCTTTG; listed as DNA, chemistry not given here; listed as Homo sapiens)”, the “ncRNA array expression, patient 2” value was determined as 2.217; the “ncRNA array expression, patient 3” value is on record as 2.382; the “ncRNA array expression, patient 4” value was 2.566; the “ncRNA array expression, patient 5” value stood at 1.096. Further, the “ncRNA array expression, patient 6” value was 2.336; the “ncRNA array expression, patient 7” value came out at 2.665; the “ncRNA array expression, patient 8” value is listed as 3.323; the “ncRNA array expression, patient 9” value is recorded as −0.6629. The “ncRNA array expression, patient 10” value worked out at 2.245; the “ncRNA array expression, patient 19” value was 0.2985; the “ncRNA array expression, patient 20” value was determined as 1.011; the “ncRNA array expression, patient 21” value came out at 0.6264. Moreover, the “ncRNA array expression, patient 22” value is given as 0.5499; the “ncRNA array expression, patient 23” value turned out to be 0.09129; the “ncRNA array expression, patient 24” value was 2.832; the “ncRNA array expression, patient 25” value worked out at 3.664. Moreover, the “ncRNA array expression, patient 26” value is 3.29; the “ncRNA array expression, patient 27” value stood at 2.308; the “ncRNA array expression, patient 28” value is 1.044; the “ncRNA array expression, patient 29” value amounted to 2.583. The “ncRNA array expression, patient 30” value is on record as −1.3285.
